Assay in all cases: relative viability (nuclei count vs DMSO), 5 days (fraction); higher = more cells survive
Compound in test [1]: Cc1ccc(-n2nc(C(C)(C)C)cc2NC(=O)Nc2ccc(OCCN3CCOCC3)c3ccccc23)cc1 [Doramapimod] + CC(C)C[C@H](NC(=O)[C@H](Cc1ccccc1)NC(=O)c1cnccn1)B(O)O [Bortezomib] (partner 0.002 µM)
An outline of the steps:
(§1)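 The day after seeding in 1536-well plates, lung cancer cell lines were treated by pin tool with a single drug, or with a fixed anchor-drug dose together with five library-drug doses (not always all listed) in √10 steps. After 5 days, a combined fix-and-stain solution (final 0.05% Triton X-100, 1% formaldehyde, 1 ug/ml Hoechst) was added. Nuclei counted on 4× images gave relative viability as treated counts over vehicle counts, reported as the median of duplicate plates.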

Compound in test [2]: C1=CC=C2C(=C1)C=CC(=C2SSC3=C(C=CC4=CC=CC=C43)O)O [IPA-3] + NC(=O)Nc1cc(-c2cccc(F)c2)sc1C(=O)N[C@H]1CCCNC1 [AZD7762] (partner 0.2 µM)
In short, it runs like this: as §1

Compound in test [3]: C1=CC=C2C(=C1)C=CC(=C2SSC3=C(C=CC4=CC=CC=C43)O)O [IPA-3] + O=C(CCCCCCC(=O)Nc1ccccc1)NO [Vorinostat] (partner 1 µM)
An outline of the steps:
as §1

Compound in test [4]: Cc1ccc(-n2nc(C(C)(C)C)cc2NC(=O)Nc2ccc(OCCN3CCOCC3)c3ccccc23)cc1 [Doramapimod] + Cc1nc(NC(=O)N2CCC[C@H]2C(N)=O)sc1-c1ccnc(C(C)(C)C(F)(F)F)c1 [Alpelisib] (partner 2 µM)
An outline of the steps:
as §1

As for NCI-H1993, the relative viability in test [1] (first compound 0.02 µM) was 1.3; in test [1] (first compound 0.06325 µM) it was 0.993; in test [1] (first compound 0.2 µM), 1.03; in test [1] (first compound 0.6325 µM) it was 1.53; in test [1] (first compound 2 µM), 0.97; in test [2] (first compound 0.2 µM), 0.971. Besides, the relative viability in test [2] (first compound 0.6325 µM) was found to be 0.922; in test [2] (first compound 2 µM) it was 0.85; in test [2] (first compound 6.325 µM) it was 0.738; in test [2] (first compound 20 µM), 0.726; in test [3] (first compound 0.2 µM) it was 1.15; in test [3] (first compound 0.6325 µM), 0.639. The relative viability turned out to be 0.758 in test [3] (first compound 2 µM); 0.725 in test [3] (first compound 6.325 µM); 0.918 in test [3] (first compound 20 µM); 0.765 in test [4] (first compound 0.02 µM); 0.617 in test [4] (first compound 0.06325 µM); 0.707 in test [4] (first compound 0.2 µM). In addition, the relative viability was 0.626 in test [4] (first compound 0.6325 µM) and 0.664 in test [4] (first compound 2 µM).

Consider NCI-H2085, for which the relative viability in test [1] (first compound 0.02 µM) is 1.03; in test [1] (first compound 0.06325 µM), 1; in test [1] (first compound 0.2 µM) it was 0.952; in test [1] (first compound 0.6325 µM), 1.06; in test [1] (first compound 2 µM), 0.945; in test [2] (first compound 0.2 µM), 1.11. Further, the relative viability in test [2] (first compound 0.6325 µM) is 0.956; in test [2] (first compound 2 µM), 1.02; in test [2] (first compound 6.325 µM), 0.893; in test [2] (first compound 20 µM), 1.21; in test [3] (first compound 0.2 µM), 0.868; in test [3] (first compound 0.6325 µM) it was 0.756. In addition, the relative viability stood at 0.819 in test [3] (first compound 2 µM); 0.726 in test [3] (first compound 6.325 µM); 0.957 in test [3] (first compound 20 µM); 1.03 in test [4] (first compound 0.02 µM); 0.928 in test [4] (first compound 0.06325 µM); 0.839 in test [4] (first compound 0.2 µM). The relative viability in test [4] (first compound 0.6325 µM) is 0.913; in test [4] (first compound 2 µM), 0.93.

On to NCI-H2087, for which the relative viability stood at 0.931 in test [1] (first compound 0.02 µM); 0.866 in test [1] (first compound 0.06325 µM); 0.79 in test [1] (first compound 0.2 µM); 0.771 in test [1] (first compound 0.6325 µM); 0.768 in test [1] (first compound 2 µM); 1.52 in test [2] (first compound 0.2 µM). Further, the relative viability in test [2] (first compound 0.6325 µM) was determined as 1.29; in test [2] (first compound 2 µM), 1.43; in test [2] (first compound 6.325 µM), 1.07; in test [2] (first compound 20 µM) it was 1.35; in test [3] (first compound 0.2 µM), 0.72; in test [3] (first compound 0.6325 µM), 0.841. In addition, the relative viability was 0.727 in test [3] (first compound 2 µM); 0.668 in test [3] (first compound 6.325 µM); 0.821 in test [3] (first compound 20 µM); 1.2 in test [4] (first compound 0.02 µM); 1.25 in test [4] (first compound 0.06325 µM); 1.05 in test [4] (first compound 0.2 µM). The relative viability in test [4] (first compound 0.6325 µM) came out at 1.23; in test [4] (first compound 2 µM) it was 0.838.

On to NCI-H2126, for which the relative viability in test [1] (first compound 0.02 µM) turned out to be 1.2; in test [1] (first compound 0.06325 µM), 1.14; in test [1] (first compound 0.2 µM), 1.11; in test [1] (first compound 0.6325 µM) it was 1.16; in test [1] (first compound 2 µM), 1.07; in test [2] (first compound 0.2 µM), 1.05. Moreover, the relative viability in test [2] (first compound 0.6325 µM) is 0.974; in test [2] (first compound 2 µM) it was 1; in test [2] (first compound 6.325 µM) it was 0.958; in test [2] (first compound 20 µM), 1.05; in test [3] (first compound 0.2 µM) it was 0.822; in test [3] (first compound 0.6325 µM), 0.784. For the same cell line, the relative viability in test [3] (first compound 2 µM) was found to be 0.746; in test [3] (first compound 6.325 µM), 0.753; in test [3] (first compound 20 µM) it was 0.892; in test [4] (first compound 0.02 µM), 0.743; in test [4] (first compound 0.06325 µM) it was 0.733; in test [4] (first compound 0.2 µM), 0.733. Besides, the values for the relative viability in test [4] (first compound 0.6325 µM) and in test [4] (first compound 2 µM) were 0.742 and 0.662, respectively.

With NCI-H2347, the relative viability in test [1] (first compound 0.06325 µM) was 0.72; in test [1] (first compound 0.2 µM), 1.19; in test [1] (first compound 0.6325 µM), 1.07; in test [1] (first compound 2 µM), 0.963; in test [2] (first compound 0.2 µM), 0.789; in test [2] (first compound 0.6325 µM), 0.604. Moreover, the relative viability in test [2] (first compound 2 µM) turned out to be 0.777; in test [2] (first compound 6.325 µM) it was 0.738; in test [2] (first compound 20 µM), 0.904; in test [3] (first compound 0.2 µM), 0.768; in test [3] (first compound 0.6325 µM), 0.601; in test [3] (first compound 2 µM), 0.634. Further, the relative viability in test [3] (first compound 6.325 µM) came out at 0.506; in test [3] (first compound 20 µM), 0.638; in test [4] (first compound 0.02 µM) it was 1.09; in test [4] (first compound 0.06325 µM), 0.926; in test [4] (first compound 0.2 µM) it was 1.06; in test [4] (first compound 0.6325 µM) it was 1.05. In test [4] (first compound 2 µM), the relative viability was found to be 0.957.

The record behind these values is the supplement of paper PMC10307832.
